From patent publication US4714765A, “Rhodanine derivatives and process for preparing the same” (Taiho Pharmaceutical Company, Limited, priority 1985, dated 1987) come the findings set out here.

This assay addresses T1, Rat Lens Aldose Reductase (Rattus norvegicus, UniProt P07943).
T1 construct: The lenses were then homogenized in cold distilled water; from tissue; host or cells: lens of Sprague-Dawley rats, supernatant of homogenate (10,000 rpm, 10 min)
Kind of assay: Aldose reductase inhibitory activity (Rat Lens Aldose Reductase). Type of assay: biochemical, rat (Sprague-Dawley). The note with it: rat lens homogenate supernatant; glyceraldehyde as substrate; decrease in NADPH at 340 nm; read-out: IC50 (concentration of the test compound at which 50% inhibition of aldose reductase is achieved). The procedure: Aldose reductase inhibitory activity
Rat Lens Aldose Reductase:
This test was conducted according to the method described in J. Biol. Chem., 240, 877 (1965).
Sprague-Dawley rats weighing 100 to 150 g were suffocated with carbon dioxide and the lenses were carefully removed. The lenses were then homogenized in cold distilled water (0.4 ml/lens) and the homogenate was centrifuged at 10,000 rpm for 10 min. The enzyme, i.e. aldose reductase was spectrophotometrically measured by following the decrease in NADPH at 340 nm with glyceraldehyde as substrate. An IC50 i.e., a concentration of the test compound at which 50% inhibition of aldose reductase is achieved was calculated from estimated dose-response curves.
`Cc1cc(C=CC=C2SC(=S)NC2=O)on1` [Compound 1a, 5-[3-(3-methyl-5-isoxazolyl)-1,3-propanediene]rhodanine]: the IC50 was found to be 4000 nM.

With `Cc1cc(CC2SC(=S)N(CC(=O)O)C2=O)on1` (stereo not drawn) [Compound 1g, 5-(3-methyl-5-isoxazolylmethyl)rhodanine-3-acetic acid], the IC50 amounted to 640 nM. The value for `Cc1cc(C=CC=C2SC(=S)N(CC(=O)O)C2=O)on1` [Compound 1b] was 130 nM.
